Data reported in patent publication US5942511A, “Allylthiopyridazine derivatives and process for preparing the same” (Kwon; Soon Kyoung, priority 1998, dated 1999).
“And” between values parts separate entries of the source, which are not always exact repeats. Equal values may be shown once.

Columns and labels:
[1] = tested on: radiation damage; experiment: Protective effect against radiation damage: survival of mouse; type: in vivo, male ICR mouse; details: 100 mg/kg per day, 2 days
Source text: Further, the present inventors have confirmed the protective effect of allylthiopyridazine derivative according to the present invention against radiation by administering the active compound to mouse, irradiating the radiation of 8 or 9Gy and, after a certain period, measuring the survival rate of mouse. For example, the survival rate during 30 days of 8Gy radiation can be seen from FIG. 3, and the specific experimental result is described in the following Table 7. Specifically, when 8Gy radiation is used, the survival rate during 30 days in the groups which only radiation was used was merely 48%, whereas the survival rates during 30 days in the groups to which the compounds of Examples 4 and 8 are previously administered were 76% and 70%, respectively. Therefore, it can be noted that the protective effect of the compound according to the present invention against radiation is proven to be a very significant novel discovery.
Protective effect against radiation damage
In order to confirm the protective effect of the compound of the present invention against radiation damage, the following test was conducted.
Male ICR mouse was bred in a chamber to which sterile atmosphere is supplied, at inner temperature 20-23° C. and relative humidity 50% with sufficient water and feed. When the weight of mouse reached 20-25 g, the compound of the present invention was suspended in corn oil and then administered for 2 days in the dose of 100 mg/kg (1 ml/kg) per day. After 3 hours from the last administration of the test compound, 8 or 9 Gy radiation was irradiated to mouse. Specifically, mouse was introduced into a box made of acryl which limited his movement, and then radiation produced from ^60 Co radioactive material was irradiated to whole body at the irradiating rate of 115.8 cGy/min. The dimension of acryl box was 31×31 cm^2, which is the same as the irradiating area of radiation. After 7 days of irradiation of γ-ray, mouse was sacrificed to conduct the histopathologic observation. The result of examining the survival rate during 30 days of irradiation of 8 Gy radiation is shown in FIG. 3, and the result of determining the survival rate after a certain period (10, 13 or 30 days) from irradiation of 8 or 9 Gy radiation is described in the following Table 7.

[2] = tested on: serum ALT (alanine aminotransferase); experiment: Effect of inhibiting hepatic disorder induced by carbon tetrachloride: serum ALT; type: in vivo, male ICR mice; details: CCl4 100 μl/kg i.p., compound 50 mg/kg per day oral, 3 days
Source text: First, the effects of allylthiopyridazine derivative of formula (I) for prevention and treatment of hepatic diseases was examined using carbon tetrachloride model and acetaminophen model.
Carbon tetrachloride model [see, Philippe letteron et al., Biochemical Pharmacology, 39, 12, 2027-2034, 1990] is most frequently used as an experimental model of hepatic disorder and has been established on the basis of the fact that carbon tetrachloride is converted into trichloromethyl free radical (CCl3 .), a highly toxic metabolite, by the action of cytochrome P-450 in body. This metabolite strongly binds with thiol group of liver microsomal membrane protein to produce a lipid radical, which is then converted into peroxy radical in the presence of oxygen, thereby stimulating the peroxidation reaction of membrane lipid. That is, carbon tetrachloride inhibits protein biosynthesis in liver, increases blood ALT (alanine aminotransferase) and causes centrilobular necrosis of liver cells.
(§1) In the present invention, the inhibiting effect of the compound of formula (I) on hepatic disorder, induced by carbon tetrachloride and acetaminophene, was determined after oral administration of the novel compound according to the present invention to mouse as the experimental animal for 3 days. The degree of liver damage in respective experimental animal was determined by measuring ALT and LDH levels in blood [see, Biol. Pharm. Bull., 20, 4, 381-385, 1997; Toxicology and Applied Pharmacology, 95, 1-11, 1988], and further by removing the liver, staining (×100) the liver with hematoxylin and eosin and then observing with microscope to examine the degree of hepatocyte necrosis.
Effect of inhibiting hepatic disorder induced by carbon tetrachloride
The liver protective effect of the compound according to the present invention was examined according to the known method [see, Philippe letteron et al., Biochemical Pharmacology, 39, 12, 2027-2034, 1990] as specifically described below.
The compound according to the present invention was suspended in corn oil and the resulting suspension was administered in an amount of 1.0 ml/kg. Each group was composed of 3 to 10 male ICR mice (5-6 weeks) and the test compound was orally administered for 3 days in the dose of 50 mg/kg per day. After the test compound was administered, carbon tetrachloride was intraperitoneally injected in an amount of 100 μl/kg. In this experiment, silymarin was used as the comparative compound. After 24 hours from administration of carbon tetrachloride, blood was taken from the test animal by cardiac perforation and ALT value in serum was determined. The result obtained is described in the following Table 2 (in which ALT value is represented by mean±SE). The ALT unit in serum was determined by centrifuging blood to separate serum as the supernatant, and then the separated serum were subjected to Reitman-Frankel method by means of a commercially available kit (BC101-O,P, Youngdong Pharm.). That is, DL-alanine and α-ketoglutarate were used as the substrate solution to which 2,4-dinitrophenylhydrazine was added to produce hydrazone. Then, sodium hydroxide was added to hydrazone to colorize and then the absorbance was measured at 505 nm.

[3] = tested on: hepatocyte necrosis; experiment: Effect of inhibiting hepatic disorder induced by acetaminophen (APAP): hepatocyte necrosis; type: in vivo, male ICR mice; details: APAP model, 50 mg/kg per day oral, 3 days
Procedure: as §1
In addition, liver was removed from the test animals, stained (×100) with hematoxylin and eosin and then observed by microscope. The degree of hepatocyte necrosis was evaluated according to the following 5 grades: 0 no lesion, 1 mild lesion, 2 moderate lesion, 3 severe lesion and 4 diffused lesion.
The liver protective effect of the compound according to the present invention was examined according to the known method [see, Wang et al., Toxicology and applied Pharmacology, 136, 146-154, 1996] as specifically described below.
The compound according to the present invention was suspended in corn oil and the resulting suspension was administered in an amount of 1.0 ml/kg. Each group was composed of 3 to 10 male ICR mice (5-6 weeks) and the test compound was orally administered for 3 days in the dose of 50 mg/kg per day. After 2 hours from the last administration of the test compound, acetaminophen was orally administered in an amount of 0.5 g/kg. In this experiment, silymarin was used as the comparative compound. After 22 hours from the administration of acetaminphen, blood was taken from the individual test animal and ALT and LDH values in serum were determined. The results as obtained are described in the following Tables 4 and 5 (in which ALT and LDH values are represented by mean±SE). In addition, liver was removed from the test animals and then observed according to the same manner as Experiment 3 to evaluate the degree of hepatocyte necrosis.

C=CCSc1ccc(OC)nn1 [Example 4, 3-methoxy-6-allylthiopyridazine]
survival number ([1]; 10 days of 9 Gy radiation): 16/23 | survival rate ([1]; 10 days of 9 Gy radiation): 70% | survival number ([1]; 13 days of 9 Gy radiation): 3/23 | survival rate ([1]; 13 days of 9 Gy radiation): 13% | survival number ([1]; 30 days of 8 Gy radiation): 18/23 | survival rate ([1]; 30 days of 8 Gy radiation, 100 mg/kg/day): 78% and 76% | Inhibiting rate (serum ALT) [2]: 57% | Serum ALT value ([2]; mean±SE): 3966 ± 1116 KA unit/l | Degree of necrosis 0: number of animals ([3]; grade 0 no lesion): 5 | Degree of necrosis 1: number of animals ([3]; grade 1 mild lesion): 4 | Degree of necrosis 2: number of animals ([3]; grade 2 moderate lesion): 1 | Degree of necrosis 3: number of animals ([3]; grade 3 severe lesion): 0 | Degree of necrosis 4: number of animals ([3]; grade 4 diffused lesion): 0
